Test results as given in US12551437B2, “Liposome compositions comprising weak acid drugs and uses thereof” (Pharmosa Biopharm Inc., priority 2017, dated 2026).
One block for each molecule: values may come before it.

What was measured:
[1] = cited from earlier work
[2] = Drug loading and encapsulation efficiency of liposome suspensions (G-25 column separation, HPLC); format: physicochemical
Experimental: Liposome colloidal suspensions were prepared by ethanol injection technique. […] (DSPE-PEG2000) were dissolved in 2.86 ml of ethanol. The lipid solution in ethanol was injected into 17.4 ml of sodium acetate (200 mM or 400 mM) with vigorous stirring at 60° C. Liposomes were formed as soon as the lipid solution was in contact with sodium acetate. This was followed by extruding the liposome suspension through a 200 nm and a 100 nm polycarbonate membrane (six times, respectively). The liposome with about 100 nm was obtained and diafiltrated against a citrate buffer (pH 5.5) to form a higher inside/lower outside pH gradient between the external medium and the internal aqueous medium of the liposomes. The empty liposome suspension was then stored at 4° C. before drug loading process.
PGE1 (alprostadil) was added to the liposome suspension in the preceding paragraph at various drug/lipid molar ratios at room temperature (25° C.) for 20 min. The PGE1 loaded liposome suspension was stored at 4° C.
The liposome suspension was prepared according to the method described in Section 1.1, except that sodium acetate (200 mM or 400 mM) was replaced by sodium bicarbonate (e.g. 200 mM, 400 mM or other concentrations).
The amount of the drug encapsulated into the liposome was quantified using Waters Alliance® HPLC system with a Photodiode Array (PDA) Detector. […] Separation was performed in C18 Column (Phenomenex Prodigy 5U ODS-3 150×4.6 mm), and then post-reaction was carried out by mixed with IN of KOH at 65° C. The peak of the drug e.g. PGE1 was detected at 280 nm. The retention time was about 4.6 minutes.
Encapsulation efficiency (EE), i.e. the percentage of the drug encapsulated (or loaded) in the internal aqueous medium of the liposomes to the total amount of the drug present in the liposome suspension (i.e. drug in the external medium and drug loaded into the internal aqueous medium of the liposomes) was quantified as follows. Briefly, the liposome suspension was subjected to column chromatography. The free or non-associated drug (i.e. the drug in the external medium) and the liposomes containing the encapsulated drugs in the internal aqueous medium were separated from each other by eluting the liposome suspension through a G-25 column. The amount of the free drug was determined using Waters HPLC with PDA detection, and the amount of the encapsulated drug in the internal aqueous medium of the liposome, after destructing the liposomes with methanol (90% methanol and 10% liposome suspension), was also determined using the same method. The encapsulation efficiency was calculated using the following formula,
[formula] where L is the amount of the encapsulated drug in the internal aqueous medium of the liposomes, and F is the amount of the free drug in the external medium.
In addition, the internal drug concentration (mM) was calculated as follows. Internal drug concentration (mM)=[Drug [μg/mL]×EE %/molecular weight]/[trapped volume*]

[3] = tested on: pulmonary hypertension; experiment: Hypoxia-induced pulmonary hypertension in rats, mean pulmonary arterial pressure (PAP); format: in vivo, Sprague Dawley rats; settings: treprostinil at 6 μg/kg, single dose, microsprayer at the trachea bifurcation, hypoxic rats (FiO2=0.1)
Experimental: To induce pulmonary hypertension, a pressure catheter was inserted into the pulmonary artery of each rat. One end of the catheter was exposed at the nape of the neck and connected to a pressure transducer. 24 Hours after the catheter insertion, the rats were transferred into a hypoxic chamber where the oxygen (O2) level was reduced to 10% (FiO2=0.1) by increasing the level of nitrogen (N2). Once stable pulmonary hypertension was established, each rat was administered with a single dose of the three test articles: saline (N=6), free treprostinil at 6 μg/kg (N=6) or the pharmaceutical composition of Example 4 with treprostinil at 6 μg/kg (liposomal treprostinil, N=6). The test article was administered using a microsprayer at the trachea bifurcation of the rat. Following the test article administration, mean pulmonary arterial pressure (PAP) was measured at scheduled time points.

[4] = Incubation of liposome suspensions at simulated human physiological condition: pH of external medium and leakage; format: physicochemical; settings: 20 minutes; for pH at incubation temperature: external buffer 280 mOsm/Kg, citrate 10 mM; for liposome leakage: 280 mOsm/Kg
Experimental: Liposome suspensions using various concentrations of sodium bicarbonate for PGE1 loading were prepared according to section 1.1 of Example 1. The liposome suspensions were incubated at 25° C. and 37° C. for 20 minutes in an external buffer with osmolarity between 280-300 mOsm/Kg, to simulate human physiological condition.
Incubating formulations with a bicarbonate concentration of higher than about 1000 mM in human physiological condition (37° C. and 280-300 mOsm/Kg) generated more CO2, and lead to liposome leakage. The leaked liposomes released bicarbonate salt and the drug from the internal aqueous medium into the external medium and increased the pH of external medium to higher than 6.5.

[5] = liposomal formulation (4-1) HSPC:cholesterol:DSPE-mPEG2000 3:2:0.075, internal bicarbonate salt 200 mM, drug loading at 25° C.
[6] = liposomal formulation (4-1) HSPC:cholesterol:DSPE-mPEG2000 3:2:0.075, internal bicarbonate salt 400 mM, drug loading at 25° C.
[7] = liposomal formulation (4-1) HSPC:cholesterol:DSPE-mPEG2000 3:2:0.075, internal bicarbonate salt 400 mM, drug loading at 40° C.
[8] = liposomal formulation (4-2) HSPC:cholesterol:DSPG 3:2:0.075, internal bicarbonate salt 400 mM, drug loading at 40° C.
[9] = liposomal formulation (4-3) DPPC:Cholesterol:DSPE-mPEG2000 3:2:0.075, internal bicarbonate salt 400 mM, drug loading at 40° C.
[10] = liposomal formulation (4-4) DSPC:DPPC:Cholesterol:mPEG2000-DSPE 2.7:0.3:2:0.075, internal bicarbonate salt 250 mM, drug loading at 40° C.
[11] = liposomal formulation (4-5) HSPC:Cholesterol:mPEG2000-DSPE:stearylamine 3:2:0.075:0.025, internal bicarbonate salt 400 mM, drug loading at 40° C.
[12] = liposomal formulation (4-6) HSPC:DMPC:Cholesterol:mPEG2000-DSPE 2.7:0.3:2:0.075, internal bicarbonate salt 400 mM, drug loading at 40° C.
[13] = sodium bicarbonate internal salt 50 mM, 10 mM of phospholipid
[14] = sodium bicarbonate internal salt 150 mM, 10 mM of phospholipid
[15] = sodium bicarbonate internal salt 200 mM, 10 mM of phospholipid
[16] = sodium bicarbonate internal salt 250 mM, 10 mM of phospholipid
[17] = sodium bicarbonate internal salt 300 mM, 10 mM of phospholipid
[18] = sodium bicarbonate internal salt 400 mM, 10 mM of phospholipid
[19] = sodium bicarbonate internal salt 500 mM, 5 mM of phospholipid
[20] = sodium bicarbonate internal salt 600 mM, 10 mM of phospholipid
[21] = sodium bicarbonate internal salt 800 mM, 10 mM of phospholipid

Compound: O=C(c1ccccc1)c1ccc2n1CCC2C(=O)O (stereo not drawn) [Ketorolac sodium]
pKa [1]: 3.8

Compound: CCCCC[C@H](O)/C=C/[C@H]1[C@H](O)CC(=O)[C@@H]1C/C=C\CCCC(=O)O [Prostaglandin E2 (PGE2), Prostaglandin E2]
pKa [1]: 4.3

Compound: C[C@]12CCC(=O)C=C1CC[C@@H]1[C@@H]2[C@@H](O)C[C@@]2(C)[C@H]1CC[C@]2(O)C(=O)COC(=O)CCC(=O)O [Hydrocortisone sodium succinate]
pKa [1]: 3.66

Compound: CCCCC[C@H](O)/C=C/[C@@H]1[C@H]2C/C(=C/CCCC(=O)O)O[C@H]2C[C@H]1O [Epoprostenol]
pKa [1]: 4.43

E.E. [2, 5]: 91.0%
Internal [drug] [2, 5]: 87.06 mM
Internal drug to internal salt molar ratio [2, 5]: 0.435
Measured [drug] [2, 5]: 766.8 µg/mL
E.E. [2, 6]: 91.2%
Internal [drug] [2, 6]: 135.71 mM
Internal drug to internal salt molar ratio [2, 6]: 0.339
Measured [drug] [2, 6]: 1192.7 µg/mL
Compound: O=C(c1ccccc1)c1ccc2n1CCC2C(=O)O (stereo not drawn) [Ketorolac]

Compound: O=C(O)COC(=O)Cc1ccccc1Nc1c(Cl)cccc1Cl [Aceclofenac]
pKa [1]: 4.7

E.E. [2, 7]: 93.3%
Internal [drug] [2, 7]: 88.41 mM
Internal drug to internal salt molar ratio [2, 7]: 0.221
Measured [drug] [2, 7]: 1106.3 µg/mL
Compound: CN1C(C(=O)Nc2ccccn2)=C(O)c2sc(Cl)cc2S1(=O)=O [Lornoxicam]
pKa [1]: 1.8

Compound: CC#CCC(C)[C@H](O)/C=C/[C@@H]1[C@H]2c3cccc(CCCC(=O)O)c3O[C@H]2C[C@H]1O (mixture of isomers) [Beraprost]
pKa [1]: 4.2

E.E. [2, 8]: 98.7%
Internal [drug] [2, 8]: 65.41 mM
Internal drug to internal salt molar ratio [2, 8]: 0.164
Measured [drug] [2, 8]: 174.6 µg/mL
Compound: CC(C)N(CCCCOCC(=O)O)c1cnc(-c2ccccc2)c(-c2ccccc2)n1 [MIRE-269 (ACT-333679)]
pKa [1]: 3.77

Compound: C[C@H]1C[C@@H]2[C@H]([C@@H](O)C[C@@]3(C)[C@H]2CC[C@]3(O)C(=O)COC(=O)CCC(=O)O)[C@@]2(C)C=CC(=O)C=C12 [Methylprednisolone sodium succinate]
pKa [1]: 4.6

E.E. [2, 7]: 84.5%
Internal [drug] [2, 7]: 76.72 mM
Internal drug to internal salt molar ratio [2, 7]: 0.192
Measured [drug] [2, 7]: 944.7 µg/mL
Compound: CN1C(C(=O)Nc2ccccn2)=C(O)c2ccccc2S1(=O)=O [Piroxicam]
pKa [1]: 4.8

Compound: O=C(O)COC[C@H]1CC[C@H](COC(=O)N(c2ccccc2)c2ccc(Cl)cc2)CC1 [Ralinepag (APD811), Ralinepag]
pKa [1]: 3.5

Compound: CC1(C)[C@@H](OC(=O)CCC(=O)O)CC[C@]2(C)[C@H]3C(=O)C=C4[C@@H]5C[C@@](C)(C(=O)O)CC[C@]5(C)CC[C@@]4(C)[C@]3(C)CC[C@@H]12 [Carbenoxolone sodium]
pKa [1]: 4.7

E.E. [2, 7]: 85.9%
Internal [drug] [2, 7]: 65.27 mM
Internal drug to internal salt molar ratio [2, 7]: 0.163
Measured [drug] [2, 7]: 1132.2 µg/mL
Compound: C[C@H]1C[C@@H]2[C@H]([C@@H](O)C[C@@]3(C)[C@H]2CC[C@]3(O)C(=O)COC(=O)CCC(=O)O)[C@@]2(C)C=CC(=O)C=C12 [Methylprednisolone Hemisuccinate (MPSS), Methylprednisolone Hemisuccinate]
pKa [1]: 4.29

Compound: C[C@@H]1C[C@H]2[C@@H]3CCC4=CC(=O)C=C[C@]4(C)[C@@]3(F)[C@@H](O)C[C@]2(C)[C@@]1(O)C(=O)COP(=O)(O)O [Dexamethasone sodium phosphate]
pKa [1]: 1.89

Compound: O=C(O)CCc1nc(-c2ccccc2)c(-c2ccccc2)o1 [Oxaprozin]
pKa [1]: 4.95

Compound: O=C(Oc1ccccc1C(=O)O)c1ccccc1O [Salsalate (Disalcid), Salsalate]
pKa [1]: 3.4

E.E. [2, 8]: 97.6%
Internal [drug] [2, 8]: 121.78 mM
Internal drug to internal salt molar ratio [2, 8]: 0.304
Measured [drug] [2, 8]: 1530.0 µg/mL
E.E. [2, 9]: 90.4%
Internal [drug] [2, 9]: 115.01 mM
Internal drug to internal salt molar ratio [2, 9]: 0.288
Measured [drug] [2, 9]: 1560 µg/mL
E.E. [2, 10]: 97.4%
Internal [drug] [2, 10]: 77.84 mM
Internal drug to internal salt molar ratio [2, 10]: 0.311
Measured [drug] [2, 10]: 980 µg/mL
E.E. [2, 11]: 93.7%
Internal [drug] [2, 11]: 114.62 mM
Internal drug to internal salt molar ratio [2, 11]: 0.287
Measured [drug] [2, 11]: 1500 µg/mL
E.E. [2, 12]: 94.5%
Internal [drug] [2, 12]: 119.45 mM
Internal drug to internal salt molar ratio [2, 12]: 0.299
Measured [drug] [2, 12]: 1550 µg/mL
Compound: CCCCC[C@H](O)CC[C@@H]1[C@H]2Cc3cccc(OCC(=O)O)c3C[C@H]2C[C@H]1O [Prostacycline (treprostinil), treprostinil]
maximum reduction of mean PAP [3]: 20%

E.E. [2, 6]: 92.8%
Internal [drug] [2, 6]: 161.81 mM
Internal drug to internal salt molar ratio [2, 6]: 0.405
Measured [drug] [2, 6]: 1940.8 µg/mL
E.E. [2, 13]: 93.8%
Internal [PGE1] [2, 13]: 19.08 mM
Internal drug to internal salt molar ratio [2, 13]: 0.382
[PGE1] [2, 13]: 226.4 µg/mL
E.E. [2, 14]: 95.7%
Internal [PGE1] [2, 14]: 60.25 mM
Internal drug to internal salt molar ratio [2, 14]: 0.402
[PGE1] [2, 14]: 700.7 µg/mL
E.E. [2, 15]: 95.9%
Internal [PGE1] [2, 15]: 80.47 mM
Internal drug to internal salt molar ratio [2, 15]: 0.402
[PGE1] [2, 15]: 934.0 µg/mL
E.E. [2, 16]: 92.3%
Internal [PGE1] [2, 16]: 119.94 mM
Internal drug to internal salt molar ratio [2, 16]: 0.480
[PGE1] [2, 16]: 1446.4 µg/mL
E.E. [2, 17]: 92.7%
Internal [PGE1] [2, 17]: 146.32 mM
Internal drug to internal salt molar ratio [2, 17]: 0.488
[PGE1] [2, 17]: 1756.9 µg/mL
E.E. [2, 18]: 92.8%
Internal [PGE1] [2, 18]: 161.81 mM
Internal drug to internal salt molar ratio [2, 18]: 0.405
[PGE1] [2, 18]: 1940.8 µg/mL
E.E. [2, 19]: 96.0%
Internal [PGE1] [2, 19]: 252.52 mM
Internal drug to internal salt molar ratio [2, 19]: 0.505
[PGE1] [2, 19]: 1463.9 µg/mL
E.E. [2, 20]: 93.1%
Internal [PGE1] [2, 20]: 215.66 mM
Internal drug to internal salt molar ratio [2, 20]: 0.359
[PGE1] [2, 20]: 2578.3 µg/mL
E.E. [2, 21]: 90.2%
Internal [PGE1] [2, 21]: 130.87 mM
Internal drug to internal salt molar ratio [2, 21]: 0.164
[PGE1] [2, 21]: 1614.9 µg/mL
pH at incubation temperature ([4]; bicarbonate 600 mM, 25° C.): 5.42
pH at incubation temperature ([4]; bicarbonate 600 mM, 37° C.): 5.43
pH at incubation temperature ([4]; bicarbonate 800 mM, 25° C.): 5.38
pH at incubation temperature ([4]; bicarbonate 800 mM, 37° C.): 5.53
pH at incubation temperature ([4]; bicarbonate 1000 mM, 25° C.): 5.37
liposome leakage ([4]; bicarbonate 1000 mM, 37° C.): leakage
pH at incubation temperature ([4]; bicarbonate 1000 mM, 37° C.): 6.68
pH at incubation temperature ([4]; bicarbonate 1300 mM, 25° C.): 5.44
liposome leakage ([4]; bicarbonate 1300 mM, 37° C.): leakage
pH at incubation temperature ([4]; bicarbonate 1300 mM, 37° C.): 6.74
Compound: CCCCC[C@H](O)/C=C/[C@H]1[C@H](O)CC(=O)[C@@H]1CCCCCCC(=O)O [Prostaglandin E1 (PGE1), Prostaglandin E1]
pKa [1]: 4.35

E.E. [2, 8]: 97.4%
Internal [drug] [2, 8]: 170.34 mM
Internal drug to internal salt molar ratio [2, 8]: 0.426
Measured [drug] [2, 8]: 395.9 µg/mL
Compound: CC#CCC(C)[C@H](O)/C=C/[C@@H]1[C@H]2C/C(=C/CCCC(=O)O)C[C@H]2C[C@H]1O (stereo partly drawn) [Iloprost]
pKa [1]: 4.66
